Experimental data: US20240279221A1, “HETEROCYCLIC COMPOUNDS AND METHODS OF USE” (Schrödinger, Inc., priority 2021, published 2024)
pIC50: −log10 of the molar value.

target: SOS1:KRAS (G12C) interaction (Homo sapiens (Human), UniProt Q07889); assay: SOS1-KRas(G12C) FRET Assay; type: binding; conditions: 0.5 nM His10-SOS1 (res. 564-1049), 2.5 nM GST-KRAS (res. 1-169, G12C); read-out: SOS-KRas(G12C) FRET IC50
Protocol: Inhibition of the SOS1:KRAS interaction was measured using purified GST-tagged KRAS (res. 1-169, G12C, purified based on Hillig, et al., Proc Natl Acad Sci USA (2019); 116(7):2551-2560) and recombinant His10-SOS1 (res. 564-1049; purified based on Hillig, et al.). The final assay was performed at 20 uL with 0.5 nM SOS1 protein and 2.5 nM KRAS protein in a buffer of PBS, 0.1% BSA, 5 mM MgCl2, 0.0025% Igepal, 100 mM KF, 5 mM DTT in a white 384 square well OptiPlate (PerkinElmer, Cat. 6007290). A 2× KRAS working solution was prepared in an assay buffer containing 5 nM GST-KRAS G12C and 2 nM anti-GST-Eu(K) (Cisbio, Cat. 61GSTKLA) and pre-incubated for 15 minutes at 25° C. Compounds were serially diluted in 100% DMSO from 2 mM (positive control, compound I-13, PCT Publ. No. WO2018/115380) or 20 mM and then diluted 1:20 in assay buffer before incubation with a solution of SOS1 protein mixed 1:5 with anti-6His-XL665 FRET donor (Cisbio, Cat. 61HISXL) for 15 minutes at 25° C. before addition of 2× KRAS working solution. The final DMSO concentration is 0.5%. Plates were incubated at RT for 2 hrs before the FRET signal was measured using Envision at emission 665 nm and 615 nm. FRET signal was converted to percentage of protein-protein interaction using the following equation:
[formula] • C: signal with compound treatment • P: signal for positive control (DMSO) • N: signal for negative control (no SOS1 added) • IC50 and Hill coefficients were obtained using Graph Pad Prism (Graph Pad software, Inc, USA) with non-linear regression analysis.

Sequence of SOS1:KRAS (G12C) interaction (Q07889 564-1049, stated change not applied): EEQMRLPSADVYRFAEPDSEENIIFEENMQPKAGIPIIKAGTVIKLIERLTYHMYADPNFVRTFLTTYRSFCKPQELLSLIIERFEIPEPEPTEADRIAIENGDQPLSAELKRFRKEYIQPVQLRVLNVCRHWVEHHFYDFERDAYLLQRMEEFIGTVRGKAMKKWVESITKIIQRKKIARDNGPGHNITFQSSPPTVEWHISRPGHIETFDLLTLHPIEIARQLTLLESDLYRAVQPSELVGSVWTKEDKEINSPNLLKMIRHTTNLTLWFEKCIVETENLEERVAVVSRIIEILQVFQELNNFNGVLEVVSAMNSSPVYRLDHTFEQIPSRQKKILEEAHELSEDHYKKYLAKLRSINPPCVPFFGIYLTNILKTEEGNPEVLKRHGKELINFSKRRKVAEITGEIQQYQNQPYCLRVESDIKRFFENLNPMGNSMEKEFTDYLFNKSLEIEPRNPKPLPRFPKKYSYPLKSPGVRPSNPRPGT

pIC50 | Compound
7.45 | C[C@@H](Nc1nn(C)c(=O)c2c(OCCN(C)C)c(=O)n(C3(C(F)F)CC3)cc12)c1cccc(C(F)F)c1F [Example 86, (R)-4-((1-(3-(difluoromethyl)-2-fluorophenyl)ethyl)amino)-6-(1-(difluoromethyl)cyclopropyl)-8-(2-(dimethylamino)ethoxy)-2-methyl-2,6-dihydropyrido[3,4-d]pyridazine-1,7-dione]
6.61 | C[C@@H](Nc1nn(C)c(=O)c2cc(=O)n([C@H]3CC3(C)C)cc12)c1cccc(C(F)F)c1F (single isomer, unassigned) [Example 133]
8.19 | CC(=O)N1CC[C@@](n2cc3c(N[C@H](C)c4cccc5c4OCC5(F)F)nn(C)c(=O)c3cc2=O)(C(F)(F)F)C1 (single isomer, unassigned) [Example 170]
7.08 | C[C@@H](Nc1nn(C)c(=O)c2cc(=O)n(C34CNC(C3)C4)cc12)c1cccc(C(F)F)c1F [Example 145, (R)-6-(2-azabicyclo[2.1.1]hexan-4-yl)-4-((1-(3-(difluoromethyl)-2-fluorophenyl)ethyl)amino)-2-methyl-2,6-dihydropyrido[3,4-d]pyridazine-1,7-dione]
8.36 | C[C@@H](Nc1nn(C)c(=O)c2cc(=O)n(C3(C(F)F)CC3)cc12)c1cccc(C(F)(F)c2ccncc2)c1F [Example 174, (R)-4-((1-(3-(difluoro(pyridin-4-yl)methyl)-2-fluorophenyl)ethyl)amino)-6-(1-(difluoromethyl)cyclopropyl)-2-methyl-2,6-dihydropyrido[3,4-d]pyridazine-1,7-dione]
5.88 | CCn1nc(N[C@H](C)c2cccc(C(F)(F)F)c2C)c2cn(C3CC3)c(=O)cc2c1=O [Example 8, (R)-6-cyclopropyl-2-ethyl-4-((1-(2-methyl-3-(trifluoromethyl)phenyl)ethyl)amino)-2,6-dihydropyrido[3,4-d]pyridazine-1,7-dione]
7.86 | CC(=O)N1CC[C@@](n2cc3c(N[C@H](C)c4cccc5c(F)coc45)nn(C)c(=O)c3cc2=O)(C(F)(F)F)C1 (single isomer, unassigned) [Example 172]
7.70 | Cc1cnc(C(F)(F)c2cccc([C@@H](C)Nc3nn(C)c(=O)c4cc(=O)n(C5(C(F)F)CC5)cc34)c2F)cn1 [Example 176, (R)-4-((1-(3-(difluoro(5-methylpyrazin-2-yl)methyl)-2-fluorophenyl)ethyl)amino)-6-(1-(difluoromethyl)cyclopropyl)-2-methyl-2,6-dihydropyrido[3,4-d]pyridazine-1,7-dione]
5.46 | CC(Nc1nn(C)c(=O)c2cc(=O)n(C3CC3)cc12)c1cc(F)cc(C(F)(F)F)c1 (centres unmarked) [Example 159, 6-cyclopropyl-4-((1-(3-fluoro-5-(trifluoromethyl)phenyl)ethyl)amino)-2-methylpyrido[3,4-d]pyridazine-1,7(2H,6H)-dione]
7.46 | C[C@@H](Nc1nn(C)c(=O)c2cc(=O)n([C@@]3(C(F)(F)F)CCOC3)cc12)c1cccc2c(F)coc12 (single isomer, unassigned) [Example 166]
7.12 | C[C@@H](Nc1nn(C)c(=O)c2cc(=O)n(C34COC(CF)(C3)C4)cc12)c1cccc(C(F)F)c1F [Example 178, (R)-4-((1-(3-(difluoromethyl)-2-fluorophenyl)ethyl)amino)-6-(1-(fluoromethyl)-2-oxabicyclo[2.1.1]hexan-4-yl)-2-methyl-2,6-dihydropyrido[3,4-d]pyridazine-1,7-dione]
6.22 | C[C@@H](Nc1nn(C)c(=O)c2cc(=O)n([C@]3(C(F)(F)F)CCOC3)cc12)c1cccc2c(F)coc12 (single isomer, unassigned) [Example 167]
< 5.00 | CNC(=O)C(F)(F)c1cccc([C@H](C)Nc2nn(C)c(=O)c3cc(=O)n(C4CC4)cc23)c1F [Example 108, (S)-2-(3-(1-((6-cyclopropyl-2-methyl-1,7-dioxo-1,2,6,7-tetrahydropyrido[3,4-d]pyridazin-4-yl)amino)ethyl)-2-fluorophenyl)-2,2-difluoro-N-methylacetamide]
7.71 | C[C@@H](Nc1nn(C)c(=O)c2cc(=O)n([C@@]3(C(F)(F)F)CCOC3)cc12)c1cccc(C(F)F)c1F (single isomer, unassigned) [Example 164]
7.16 | C[C@@H](Nc1nn(C)c(=O)c2cc(=O)n(C34COC(C)(C3)C4)cc12)c1cccc(C(F)F)c1F [Example 179, (R)-4-((1-(3-(difluoromethyl)-2-fluorophenyl)ethyl)amino)-2-methyl-6-(1-methyl-2-oxabicyclo[2.1.1]hexan-4-yl)-2,6-dihydropyrido[3,4-d]pyridazine-1,7-dione]
5.42 | C[C@H](Nc1nn(C)c(=O)c2cc(=O)n(C3CC3)cc12)c1ccc2c(c1)CCCC2 [Example 102, (S)-6-cyclopropyl-2-methyl-4-((1-(5,6,7,8-tetrahydronaphthalen-2-yl)ethyl)amino)-2,6-dihydropyrido[3,4-d]pyridazine-1,7-dione]
7.49 | C[C@@H](Nc1nn(C)c(=O)c2cc(=O)n(C3(C(F)F)CCC3)cc12)c1cccc(C(F)F)c1F [Example 147, (R)-4-((1-(3-(difluoromethyl)-2-fluorophenyl)ethyl)amino)-6-(1-(difluoromethyl)cyclo-butyl)-2-methyl-2,6-dihydropyrido[3,4-d]pyridazine-1,7-dione]
6.50 | C[C@@H](Nc1nn(C)c(=O)c2cc(=O)n([C@@H]3CCC(F)(F)C3)cc12)c1cccc(C(F)F)c1F (single isomer, unassigned) [Example 122]
6.92 | COC(C)(C)C(F)(F)c1cccc([C@@H](C)Nc2nn(C)c(=O)c3cc(=O)n(C4CC4)cc23)c1F [Example 109, (R)-6-cyclopropyl-4-((1-(3-(1,1-difluoro-2-methoxy-2-methylpropyl)-2-fluorophenyl)ethyl)amino)-2-methyl-2,6-dihydropyrido[3,4-d]pyridazine-1,7-dione]
5.61 | C[C@@H](Nc1nn(C)c(=O)c2cc(=O)n(C3CC3)cc12)c1ccc2ccccc2c1 [Example 182, (R)-6-cyclopropyl-2-methyl-4-((1-(naphthalen-2-yl)ethyl)amino)-2,6-dihydropyrido[3,4-d]pyridazine-1,7-dione]
6.25 | COC1(C(=O)N2CC(C)(n3cc4c(N[C@H](C)c5cccc(C(F)F)c5F)nn(C)c(=O)c4cc3=O)C2)CC1 [Example 151, (R)-4-((1-(3-(difluoromethyl)-2-fluorophenyl)ethyl)amino)-6-(1-(1-methoxycyclopropane-1-carbonyl)-3-methylazetidin-3-yl)-2-methyl-2,6-dihydropyrido[3,4-d]pyridazine-1,7-dione]
5.69 | C[C@@H](Nc1nn(C)c(=O)c2cc(=O)n(C3(C(F)F)CC3)cc12)c1cccc2cccn12 [Example 114, (R)-6-(1-(difluoromethyl)cyclopropyl)-4-((1-(indolizin-5-yl)ethyl)amino)-2-methyl-2,6-dihydropyrido[3,4-d]pyridazine-1,7-dione]
6.39 | C[C@@H](Nc1nn(C)c(=O)c2cc(=O)n([C@@]3(C(F)F)CCOC3)cc12)c1cccc(C(F)F)c1F (single isomer, unassigned) [Example 119]
< 4.00 | C[C@H](Nc1nn(C)c(=O)c2cc(=O)n(C3CC3)cc12)c1cccc2sccc12 [Example 65, (S)-4-((1-(benzo[b]thiophen-4-yl)ethyl)amino)-6-cyclopropyl-2-methyl-2,6-dihydropyrido[3,4-d]pyridazine-1,7-dione]
7.18 | C[C@@H](Nc1nn(C)c(=O)c2cc(=O)n([C@@]3(C(F)(F)F)CCN(C)C3)cc12)c1cccc(C(F)F)c1F (single isomer, unassigned) [Example 97]
6.73 | C[C@@H](Nc1nn(C)c(=O)c2cc(=O)n([C@@H]3C[C@H]3C3CC3)cc12)c1cccc(C(F)F)c1F (single isomer, unassigned) [Example 136]
7.27 | C[C@@H](Nc1nn(C)c(=O)c2cc(=O)n(C3(CF)CC3)cc12)c1cccc(C(F)F)c1F [Example 125, (R)-4-((1-(3-(difluoromethyl)-2-fluorophenyl)ethyl)amino)-6-(1-(fluoromethyl)cyclopropyl)-2-methylpyrido[3,4-d]pyridazine-1,7(2H,6H)-dione]
7.08 | C[C@@H](Nc1nn(C)c(=O)c2c(OC3COC3)c(=O)n(C3(C(F)F)CC3)cc12)c1cccc(C(F)F)c1F [Example 88, (R)-4-((1-(3-(difluoromethyl)-2-fluorophenyl)ethyl)amino)-6-(1-(difluoromethyl)cyclopropyl)-2-methyl-8-(oxetan-3-yloxy)pyrido[3,4-d]pyridazine-1,7(2H,6H)-dione]
6.72 | COc1c(=O)n(C2CC2)cc2c(N[C@H](C)c3cccc(C(F)F)c3F)nn(C)c(=O)c12 [Example 85, (R)-6-cyclopropyl-4-((1-(3-(difluoromethyl)-2-fluorophenyl)ethyl)amino)-8-methoxy-2-methyl-2,6-dihydropyrido[3,4-d]pyridazine-1,7-dione]
